Reference: US20240166695A1, “PEPTIDIC POSITIVE ALLOSTERIC MODULATORS TARGETING TRPV1” (priority 2021, published 2024)

What was measured:
[1] = Body temperature measured in the course of heat pain tests; details: rats, injection of PAM in heat pain tests
[2] = system: rats; test: Heat pain test, paw withdrawal latency after intraplantar injection; format: in vivo, Sprague-Dawley rats; details: for paw withdrawal latency / analgesic effect: intradermal hind paw injection, 100 μl, capsaicin 150 μM alone or with MRS1477 50 μM or TAT-De3 150 μM
Experimental: Animals. Male Sprague-Dawley rats (200-250 g, Charles River Laboratories, Inc.) were housed under a 12 h light-dark cycle and allowed access to food and water ad libitum. The ambient temperature of the holding and testing; rooms was ˜22° C. All procedures involving animals were carried out in strict compliance with the National Institutes of Health and institutional guidelines for the humane care of animals and were approved by the Animal Care and Use Committee of Zhejiang University (Approval ID: ZJU20190100). All efforts were made to minimize both animal numbers and distress within the experiments.
Animal behavioral measurements. A 10 mM stock solution of MRS1477 was prepared in 100% DMSO and further diluted in vehicle to 2 μg/100 μl (50 μM). […] Capsaicin-only injectates contained an equal amount of DMSO as those with MRS1477. All intraplantar injections were made using a. 29 G×½″, 3/10 cc insulin syringe. The experimenter was blinded to the identity of the injectates in the various behavioral experiments.
Thermal hyperalgesia measurement was performed as reported previously (11, 35). Briefly, unrestrained rats were placed on a clear glass platform which a light beam was applied onto the plantar hind paws of the animals under a small plastic cage which allowed them to move freely. The thermal nociceptive response was defined as the latency between light stimulus onset and paw withdrawal using a feedback-controlled shutdown unit. The intensity of the light stimulus was set such that naive rats responded with a latency of approximately 5 s. Each paw was tested one time. In the absence of a response within a predetermined maximum latency (30 s), the test was terminated to prevent tissue damage. On the day of testing, rats were allowed to habituate for at least 30 min prior to thermal stimulation. […]
We observed significant analgesic effects of TAT-De3 intradermally injected into the hind paw of rats against thermal pain. […] We recorded paw withdrawal latency to reflect the pain sensation. […]

[3] = system: TRPV1; test: Calcium imaging (Fluo-4) of capsaicin activation in transfected HEK293 cells; format: cell-based; details: 0.5 nM capsaicin; cells expressing only TRPV1
Experimental: We then investigated whether, upon binding of the designed proteins, TRPV1 activation was positively modulated. […] Probenecid (2 mM) was included in all solutions to prevent Fluo-4 leakage from cells. At the end of incubation, cells were washed three times with ECS and incubated in the same solution for another 20 min at room temperature to complete the intracellular hydrolysis process of the AM ester, which converts the non-fluorescent Fluo-4/AM into the fluorescent version Fluo-4.
Coverslip with dye-loaded cells was placed in the quick-release magnetic chamber (Warner) and mounted on the stage of a Nikon Eclipse TE2000-U microscope system equipped with a Roper Cascade 128B CCD camera. Fluo-4 was excited by an Argon laser with a filter set of Z488/10 (excitation), z488rdc (dichroic) and recorded through an emission filter HQ5001p (all from Chroma). The duration of light exposure was controlled by a computer-driven mechanical shutter (Uniblitz). Cell images were acquired sequentially with an exposure period of 200 ms at an interval of 1 s. The shutter and the camera were controlled and synchronized by MetaMorph software (Universal Imaging).

hyperthermia (body temperature) [1] | SMILES | duration of analgesic effects after a single injection ([2]; co-injected with capsaicin 150 μM) | paw withdrawal latency / analgesic effect [2] | calcium influx [3]
did not cause hyperthemia | CCOC(=O)C1=C(c2ccccc2)NC(C)=C(C(=O)SCCOC)C1CC (centres unmarked) [MRS1477] | diminished after three days | paw withdrawal latency was increased | –
– | COc1cc(CNC(=O)CCCC/C=C/C(C)C)ccc1O [capsaicin, reference compound] | – | no change in the paw withdrawal latency | did not illicit calcium influx
